The assay addresses T1, human mAChR M4 (Homo sapiens, UniProt P08173).
T1 construct: expressed in transfected cells; host or cells: CHO-K1 (American Type Culture Collection), stably expressing hM4 and Gqi5
T1 sequence (P08173 1-479): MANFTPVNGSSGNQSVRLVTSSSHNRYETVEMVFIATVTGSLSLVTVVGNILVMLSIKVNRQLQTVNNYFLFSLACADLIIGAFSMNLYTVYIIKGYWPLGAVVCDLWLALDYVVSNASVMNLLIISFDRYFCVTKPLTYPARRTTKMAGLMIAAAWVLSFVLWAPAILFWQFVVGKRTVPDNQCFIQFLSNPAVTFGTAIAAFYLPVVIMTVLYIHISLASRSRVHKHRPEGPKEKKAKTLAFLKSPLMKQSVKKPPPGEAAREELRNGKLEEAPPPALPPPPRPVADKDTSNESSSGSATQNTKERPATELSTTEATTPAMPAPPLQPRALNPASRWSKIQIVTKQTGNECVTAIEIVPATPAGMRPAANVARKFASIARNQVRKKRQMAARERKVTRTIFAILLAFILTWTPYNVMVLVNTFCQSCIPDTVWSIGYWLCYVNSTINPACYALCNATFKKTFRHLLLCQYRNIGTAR
The assay is described as follows: mAChR M4 cell-based functional assay: calcium mobilization (Fluo-4, FDSS), potentiation of EC20 acetylcholine response in hM4-Gqi5 CHO-K1 cells. Particulars: human M4; for Emax at 30 µM: CHO-K1, % ACh maximum at 30 μM; for EC50: potentiation of EC20 acetylcholine response, calcium mobilization. An outline of the steps: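 CHO-K1 cells stably co-expressing human M4 and chimeric Gqi5, loaded with Fluo-4 AM (50 min, 37 °C). Compounds in 11-point 1:3 series added first; EC20 acetylcholine added at 144 s and again at 230 s. Calcium read on FDSS at 1 Hz; EC50 and Emax from four-parameter logistic fit of potentiated EC20 response.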

Each structure is given as a SMILES string.

Broadly, the Emax is the maximal effect, on the per cent scale that the assay sets. Broadly, the EC50 is the concentration giving half of the maximal effect.

Regarding `Cc1cc2nccc(=O)n2nc1N1CCc2ncc(-c3cn(C(F)F)nc3C)cc2C1` [Compound 1-417, 7-(3-(1-(difluoromethyl)-3-methyl-1H-pyrazol-4-yl)-7,8-dihydro-1,6-naphthyridin-6(5H)-yl)-8-methyl-4H-pyrimido[1,2-b]pyridazin-4-one], the Emax at 30 µM is 82% and the EC50 worked out at 588 nM.
The matching figures for `Cc1cc(=O)n2nc(N3CCc4ncc(-c5cc(F)nc(F)c5)cc4C3)c(C)c(C)c2n1` [Compound 1-246, 7-(3-(2,6-difluoropyridin-4-yl)-7,8-dihydro-1,6-naphthyridin-6(5H)-yl)-2,8,9-trimethyl-4H-pyrimido[1,2-b]pyridazin-4-one]: 80% and 1020 nM.
The matching figures for `Cc1cc(=O)n2nc(N3CCc4ncc(-c5cncnc5)cc4C3)c(C)cc2n1` [Compound 1-286, 2,8-dimethyl-7-(3-(pyrimidin-5-yl)-7,8-dihydro-1,6-naphthyridin-6(5H)-yl)-4H-pyrimido[1,2-b]pyridazin-4-one]: 68% and 8720 nM.
The matching figures for `COc1cnccc1-c1cnc2c(c1)CN(c1nn3c(=O)ccnc3c(C)c1C)CC2` [Compound 1-269, 7-(3-(3-methoxypyridin-4-yl)-7,8-dihydro-1,6-naphthyridin-6(5H)-yl)-8,9-dimethyl-4H-pyrimido[1,2-b]pyridazin-4-one]: 88% and 211 nM.
For `Cc1ccc(-c2cnc3c(c2)CN(c2nn4c(=O)ccnc4cc2C)CC3)cn1` [Compound 1-3, 8-methyl-7-(3-(6-methylpyridin-3-yl)-7,8-dihydro-1,6-naphthyridin-6(5H)-yl)-4H-pyrimido[1,2-b]pyridazin-4-one], the Emax at 30 µM is 76% and the EC50 turned out to be 99 nM.
Consider `Cc1cc2nccc(=O)n2nc1N1CCc2ncc(N3CCOC(c4ccccc4)C3)cc2C1` (stereo not shown) [Compound 2-66, 8-methyl-7-(3-(2-phenylmorpholino)-7,8-dihydro-1,6-naphthyridin-6(5H)-yl)-4H-pyrimido[1,2-b]pyridazin-4-one], for which the Emax at 30 µM was 79% and the EC50 was found to be 652 nM.
Regarding `Cc1cc(F)c(F)c(-c2cnc3c(c2)CN(c2nn4c(=O)cc(C(F)F)nc4c(C)c2C)CC3)c1` [Compound 1-284, 7-(3-(2,3-difluoro-5-methylphenyl)-7,8-dihydro-1,6-naphthyridin-6(5H)-yl)-2-(difluoromethyl)-8,9-dimethyl-4H-pyrimido[1,2-b] pyridazin-4-one], the Emax at 30 µM was 77% and the EC50 was 1100 nM.
The matching figures for `Cc1c(N2CCc3ncc(-c4ccccc4F)cc3C2)nn2c(=O)ccnc2c1C` [Compound 1-343, 7-(3-(2-fluorophenyl)-7,8-dihydro-1,6-naphthyridin-6(5H)-yl)-8,9-dimethyl-4H-pyrimido[1,2-b]pyridazin-4-one]: 77% and 400 nM.
The matching figures for `Cc1cc2n(n1)CCCN2c1cnc2c(c1)CN(c1nn3c(=O)ccnc3c(C)c1C)CC2` [Compound 2-35, 8,9-dimethyl-7-(3-(2-methyl-6,7-dihydropyrazolo[1,5-a]pyrimidin-4(5H)-yl)-7,8-dihydro-1,6-naphthyridin-6(5H)-yl)-4H-pyrimido[1,2-b]pyridazin-4-one]: 96% and 46 nM.
The matching figures for `Cc1cc(=O)n2nc(N3CCc4ncc(-c5cc(F)ncc5F)cc4C3)c(C)c(C)c2n1` [Compound 1-281, 7-(3-(2,5-difluoropyridin-4-yl)-7,8-dihydro-1,6-naphthyridin-6(5H)-yl)-2,8,9-trimethyl-4H-pyrimido[1,2-b]pyridazin-4-one]: 85% and 498 nM.
As to `Cc1cc2nccc(=O)n2nc1N1CCc2ncc(Nc3cccc(C#N)c3)cc2C1` [Compound 2-80, 3-((6-(8-methyl-4-oxo-4H-pyrimido[1,2-b]pyridazin-7-yl)-5,6,7,8-tetrahydro-1,6-naphthyridin-3-yl)amino)benzonitrile], the Emax at 30 µM came out at 97% and the EC50 is 47 nM.
The matching figures for `Cc1c(N2CCc3ncc(N4CC(C)(C)CC4=O)cc3C2)nn2c(=O)ccnc2c1C` [Compound 2-145, 7-(3-(4,4-dimethyl-2-oxopyrrolidin-1-yl)-7,8-dihydro-1,6-naphthyridin-6(5H)-yl)-8,9-dimethyl-4H-pyrimido[1,2-b]pyridazin-4-one]: 68% and 1750 nM.
The matching figures for `Cc1c(N2CCc3ncc(N4CCC(C)(C)C4=O)cc3C2)nn2c(=O)ccnc2c1C` [Compound 2-148, 7-(3-(3,3-dimethyl-2-oxopyrrolidin-1-yl)-7,8-dihydro-1,6-naphthyridin-6(5H)-yl)-8,9-dimethyl-4H-pyrimido[1,2-b]pyridazin-4-one]: 86% and 1030 nM.
Consider `Cc1c(N2CCc3ncc(-c4cncc(F)c4)cc3C2)nn2c(=O)cc(C(F)F)nc2c1C` [Compound 1-156, 2-(difluoromethyl)-7-(3-(5-fluoropyridin-3-yl)-7,8-dihydro-1,6-naphthyridin-6(5H)-yl)-8,9-dimethyl-4H-pyrimido[1,2-b]pyridazin-4-one], for which the Emax at 30 µM turned out to be 95% and the EC50 is 204 nM.
The matching figures for `Cc1cc2nccc(=O)n2nc1N1CCc2ncc(NCC3CCCOC3)cc2C1` (stereo not shown) [Compound 2-86, 8-methyl-7-(3-(((tetrahydro-2H-pyran-3-yl)methyl)amino)-7,8-dihydro-1,6-naphthyridin-6(5H)-yl)-4H-pyrimido[1,2-b]pyridazin-4-one]: 87% and 1830 nM.
The matching figures for `Cc1cc2nccc(=O)n2nc1N1CCc2ncc(N3CCc4ccccc43)cc2C1` [Compound 2-85, 7-(3-(indolin-1-yl)-7,8-dihydro-1,6-naphthyridin-6(5H)-yl)-8-methyl-4H-pyrimido[1,2-b]pyridazin-4-one]: 95% and 22 nM.
The matching figures for `Cc1cc2nccc(=O)n2nc1N1CCc2ncc(Nc3ccc(Cl)nc3)cc2C1` [Compound 2-126, 7-(3-((6-chloropyridin-3-yl)amino)-7,8-dihydro-1,6-naphthyridin-6(5H)-yl)-8-methyl-4H-pyrimido[1,2-b]pyridazin-4-one]: 79% and 263 nM.
`Cc1c(N2CCc3ncc(-c4cnn(-c5ccccn5)c4)cc3C2)nn2c(=O)cc(C(F)F)nc2c1C` [Compound 1-163, 2-(difluoromethyl)-8,9-dimethyl-7-(3-(1-(pyridin-2-yl)-1H-pyrazol-4-yl)-7,8-dihydro-1,6-naphthyridin-6(5H)-yl)-4H-pyrimido[1,2-b]pyridazin-4-one]: the Emax at 30 µM came out at 71% and the EC50 was determined as 1020 nM.
The matching figures for `Cc1cc2nccc(=O)n2nc1N1CCc2ncc(Nc3cncc(F)c3)cc2C1` [Compound 2-128, 7-(3-((5-fluoropyridin-3-yl)amino)-7,8-dihydro-1,6-naphthyridin-6(5H)-yl)-8-methyl-4H-pyrimido[1,2-b]pyridazin-4-one]: 82% and 90 nM.
The matching figures for `Cc1c(N2CCc3ncc(-c4cc(F)cc(F)c4F)cc3C2)nn2c(=O)ccnc2c1C` [Compound 1-346, 8,9-dimethyl-7-(3-(2,3,5-trifluorophenyl)-7,8-dihydro-1,6-naphthyridin-6(5H)-yl)-4H-pyrimido[1,2-b]pyridazin-4-one]: 67% and 483 nM.

These data come from patent US20250101041A1, “POSITIVE ALLOSTERIC MODULATORS OF THE MUSCARINIC ACETYLCHOLINE RECEPTOR M4” (Vanderbilt University, priority 2022, published 2025).
